pIC50: −log10 of the molar value.
What follows are molecules tested against PI3Kβ (Homo sapiens (Human), UniProt P42338) (assay: PI3K isoform TR-FRET enzymatic assay (PI3Kβ)). Settings: 2× Km ATP, 30 minutes at 25° C.
Assay type: biochemical
How it was run: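 IC50 came from four-parameter dose-response fits, normalized between DMSO and 1 μM wortmannin controls. The read-out was TR-FRET (615/665 nm) of PIP3 displacing fluorescent PIP3 from Europium GRP-1 after 10 mM EDTA termination. Compounds were incubated with purified heterodimeric PI3Kβ for 30 min at 25° C.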

Sequence of PI3Kβ (P42338 whole entry, canonical isoform): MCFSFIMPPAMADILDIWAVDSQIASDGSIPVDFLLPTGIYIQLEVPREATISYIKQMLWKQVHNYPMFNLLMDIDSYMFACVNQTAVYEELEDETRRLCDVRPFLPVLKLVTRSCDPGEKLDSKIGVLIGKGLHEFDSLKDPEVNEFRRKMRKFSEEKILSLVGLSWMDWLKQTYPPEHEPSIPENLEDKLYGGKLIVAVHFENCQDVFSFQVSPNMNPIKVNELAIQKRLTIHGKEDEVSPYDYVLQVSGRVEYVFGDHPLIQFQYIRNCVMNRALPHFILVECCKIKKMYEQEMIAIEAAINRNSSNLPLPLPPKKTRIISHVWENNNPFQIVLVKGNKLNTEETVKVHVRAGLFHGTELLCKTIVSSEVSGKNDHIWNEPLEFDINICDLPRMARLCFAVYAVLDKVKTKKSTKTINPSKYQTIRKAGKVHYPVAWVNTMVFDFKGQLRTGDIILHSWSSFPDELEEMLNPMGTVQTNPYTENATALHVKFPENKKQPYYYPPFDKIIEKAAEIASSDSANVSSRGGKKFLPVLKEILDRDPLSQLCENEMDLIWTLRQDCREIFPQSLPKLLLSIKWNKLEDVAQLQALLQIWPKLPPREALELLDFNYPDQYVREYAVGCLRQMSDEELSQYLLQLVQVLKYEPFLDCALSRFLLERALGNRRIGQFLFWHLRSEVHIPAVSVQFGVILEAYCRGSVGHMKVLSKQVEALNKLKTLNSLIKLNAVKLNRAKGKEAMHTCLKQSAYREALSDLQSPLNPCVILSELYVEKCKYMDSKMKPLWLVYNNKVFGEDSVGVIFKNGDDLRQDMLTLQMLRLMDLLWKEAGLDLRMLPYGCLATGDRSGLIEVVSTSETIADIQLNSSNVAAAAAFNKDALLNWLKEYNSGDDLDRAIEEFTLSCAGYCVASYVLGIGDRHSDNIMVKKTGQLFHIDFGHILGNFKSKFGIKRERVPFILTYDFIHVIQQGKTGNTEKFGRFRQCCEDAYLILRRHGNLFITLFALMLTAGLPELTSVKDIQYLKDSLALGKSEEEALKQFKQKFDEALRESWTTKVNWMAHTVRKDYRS
Sequence of PI3Kβ (P27986 whole entry partner, canonical isoform): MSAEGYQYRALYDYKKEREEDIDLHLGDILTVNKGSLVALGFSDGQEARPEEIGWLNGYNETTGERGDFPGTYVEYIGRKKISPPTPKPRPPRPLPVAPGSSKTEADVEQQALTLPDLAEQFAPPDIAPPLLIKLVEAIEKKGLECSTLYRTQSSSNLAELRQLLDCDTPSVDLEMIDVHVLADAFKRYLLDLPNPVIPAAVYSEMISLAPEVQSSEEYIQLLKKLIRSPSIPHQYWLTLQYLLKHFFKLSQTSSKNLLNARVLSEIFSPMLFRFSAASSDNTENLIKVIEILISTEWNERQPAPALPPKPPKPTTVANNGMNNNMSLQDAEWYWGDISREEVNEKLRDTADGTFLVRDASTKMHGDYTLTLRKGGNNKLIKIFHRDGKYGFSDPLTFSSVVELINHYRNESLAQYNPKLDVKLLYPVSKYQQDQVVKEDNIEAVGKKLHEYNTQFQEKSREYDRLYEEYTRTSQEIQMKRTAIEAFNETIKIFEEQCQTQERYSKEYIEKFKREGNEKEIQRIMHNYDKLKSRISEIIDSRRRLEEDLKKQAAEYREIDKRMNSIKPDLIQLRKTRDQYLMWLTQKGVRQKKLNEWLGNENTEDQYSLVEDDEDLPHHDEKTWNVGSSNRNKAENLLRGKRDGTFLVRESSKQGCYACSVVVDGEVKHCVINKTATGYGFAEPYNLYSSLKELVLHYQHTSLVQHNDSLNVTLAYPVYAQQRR

SMILES | pIC50
Cc1nnc(-c2cc(N3CCOCC3)cc3c2nc(-c2cccnc2)n3-c2ccnc3c(Cl)cccc23)[nH]1 [Example 23, 4-(1-(8-chloroquinolin-4-yl)-4-(5-methyl-4H-1,2,4-triazol-3-yl)-2-(pyridin-3-yl)-1H-benzo[d]imidazol-6-yl)morpholine] | 6.41
CCc1nc2c(-c3cnc(Cl)[nH]3)cc(N3CCOCC3)cc2n1-c1ccnc2c(F)ccc(F)c12 (atropisomer, axis not shown) [Compound 346, 4-[7-(2-chloro-1H-imidazol-5-yl)-3-(5,8-difluoroquinolin-4-yl)-2-ethylbenzimidazol-5-yl]morpholine] | 5.00
Cc1nc2c(-c3nnc(C4CC4)[nH]3)cc(N3CCOCC3)cc2n1-c1ccnc2c(Cl)cccc12 [Example 135, 4-[3-(8-chloroquinolin-4-yl)-7-(5-cyclopropyl-4H-1,2,4-triazol-3-yl)-2-methylbenzimidazol-5-yl]morpholine] | 7.37
Cc1nc2c(-c3cccnc3)cc(N3CCOCC3)cc2n1-c1ccnc2c(-c3cccnc3)cccc12 [Example 318, 4-[2-methyl-7-pyridin-3-yl-3-(8-pyridin-3-ylquinolin-4-yl)benzimidazol-5-yl]morpholine] | 5.28
c1ccc2c(-n3c(C4CC4)nc4c(-c5nnc[nH]5)cc(N5CCOCC5)cc43)ccnc2c1 [Example 17, 4-(2-cyclopropyl-1-(quinolin-4-yl)-4-(4H-1,2,4-triazol-3-yl)-1H-benzo[d]imidazol-6-yl)morpholine] | 7.22
Cc1nc2c(-c3nnc[nH]3)cc(N3CCOCC3)cc2n1-c1cc(-c2nnc[nH]2)nc2ccccc12 [Example 57, 4-[2-methyl-7-(4H-1,2,4-triazol-3-yl)-3-[2-(4H-1,2,4-triazol-3-yl)quinolin-4-yl]benzimidazol-5-yl]morpholine] | 7.26
CCCc1nc2c(-c3ccn[nH]3)cc(N3CCOCC3)cc2n1-c1ccnc2c(F)ccc(F)c12 (atropisomer, axis not shown) [Compound 369, 4-(1-(5,8-difluoroquinolin-4-yl)-2-propyl-4-(1H-pyrazol-5-yl)-1H-benzo[d]imidazol-6-yl)morpholine] | < 5.00
Cc1cccc2nccc(-n3c(C)nc4c(-c5nnc[nH]5)cc(N5CCOCC5)cc43)c12 (atropisomer, axis not shown) [Compound 363, 4-[2-methyl-3-(5-methylquinolin-4-yl)-7-(4H-1,2,4-triazol-3-yl)benzimidazol-5-yl]morpholine] | 5.10
Clc1cccc2c(-n3c(C4CCOC4)nc4c(-c5nnc[nH]5)cc(N5CCOCC5)cc43)ccnc12 (stereo not shown) [Example 9, 4-(1-(8-chloroquinolin-4-yl)-2-(tetrahydrofuran-3-yl)-4-(4H-1,2,4-triazol-3-yl)-1H-benzo[d]imidazol-6-yl)morpholine] | 7.48
Cc1nc2c(-c3nnc[nH]3)cc(N3CCOCC3)cc2n1-c1ccnc2c(F)ccc(Cl)c12 (atropisomer, axis not shown) [Compound 345, 4-[3-(5-chloro-8-fluoroquinolin-4-yl)-2-methyl-7-(4H-1,2,4-triazol-3-yl)benzimidazol-5-yl]morpholine] | 5.35
Cc1nnc(-c2cc(N3CCOCC3)cc3c2nc(C)n3-c2cc(-c3cscn3)nc3ccccc23)[nH]1 [Example 104, 4-(2-methyl-4-(5-methyl-4H-1,2,4-triazol-3-yl)-1-(2-(thiazol-4-yl)quinolin-4-yl)-1H-benzo[d]imidazol-6-yl)morpholine] | 7.08

Further molecules by rising pIC50, results first:

pIC50 | SMILES
7.48 | Cc1nc2c(-c3nnc[nH]3)cc(N3CCOC[C@@H]3C)cc2n1-c1ccnc2c(Cl)cccc12 [Example 99, (3S)-4-[3-(8-chloroquinolin-4-yl)-2-methyl-7-(4H-1,2,4-triazol-3-yl)benzimidazol-5-yl]-3-methylmorpholine]
7.54 | CCc1nc2c(-c3nnc[nH]3)cc(N3CCOCC3)cc2n1-c1ccnc2ccccc12 [Example 107, 4-[2-ethyl-3-quinolin-4-yl-7-(4H-1,2,4-triazol-3-yl)benzimidazol-5-yl]morpholine]
7.57 | Cc1n[nH]c(-c2cc(N3CCOCC3)cc3c2nc(C)n3-c2c(C)cnc3c(Cl)cccc23)n1 [Example 78, 4-[3-(8-chloro-3-methylquinolin-4-yl)-2-methyl-7-(3-methyl-1H-1,2,4-triazol-5-yl)benzimidazol-5-yl]morpholine]
7.59 | Cc1nnc(-c2cc(N3CCOCC3)cc3c2nc(C)n3-c2ccnc3c(Cl)ccc(F)c23)[nH]1 [Example 94, 4-[3-(8-chloro-5-fluoroquinolin-4-yl)-2-methyl-7-(5-methyl-4H-1,2,4-triazol-3-yl)benzimidazol-5-yl]morpholine]
7.60 | CCc1nc2ccccc2c(-n2cnc3c(-c4nnc[nH]4)cc(N4CCOCC4)cc32)c1C [Example 72, 4-[3-(2-ethyl-3-methylquinolin-4-yl)-7-(4H-1,2,4-triazol-3-yl)benzimidazol-5-yl]morpholine]
7.62 | Cc1cnc2ccccc2c1-n1c(C)nc2c(-c3nnc[nH]3)cc(N3CCOCC3)cc21 [Example 65, 4-[2-methyl-3-(3-methylquinolin-4-yl)-7-(4H-1,2,4-triazol-3-yl)benzimidazol-5-yl]morpholine]
7.62 | Cc1nc2c(-c3cnc(Cl)[nH]3)cc(N3CCOCC3)cc2n1-c1ccnc2c(Cl)cc(F)cc12 [Example 289, 4-[3-(8-chloro-6-fluoroquinolin-4-yl)-7-(2-chloro-1H-imidazol-5-yl)-2-methylbenzimidazol-5-yl]morpholine]
7.72 | Cc1nnc(-c2cc(N3CCOCC3)cc3c2ncn3-c2ccnc3c(F)ccc(F)c23)[nH]1 [Example 44, 4-(1-(5,8-difluoroquinolin-4-yl)-4-(5-methyl-4H-1,2,4-triazol-3-yl)-1H-benzo[d]imidazol-6-yl)morpholine]
7.80 | CCc1nc2c(-c3nnc[nH]3)cc(N3CCOCC3)cc2n1-c1ccnc2c(F)ccc(F)c12 [Example 125, 4-[3-(5,8-difluoroquinolin-4-yl)-2-ethyl-7-(4H-1,2,4-triazol-3-yl)benzimidazol-5-yl]morpholine]
7.82 | Cc1nc2c(-c3nnc[nH]3)cc(N3CCOCC3)cc2n1-c1ccnc2c(F)c(F)ccc12 [Example 142, 4-[3-(7,8-difluoroquinolin-4-yl)-2-methyl-7-(4H-1,2,4-triazol-3-yl)benzimidazol-5-yl]morpholine]
7.89 | CCc1nc2c(-c3ncc[nH]3)cc(N3CCOCC3)cc2n1-c1ccnc2c(F)ccc(F)c12 [Example 387, 4-(1-(5,8-difluoroquinolin-4-yl)-2-ethyl-4-(1H-imidazol-2-yl)-1H-benzo[d]imidazol-6-yl)morpholine]
8.22 | Cc1nc2c(-c3ncco3)cc(N3CCOCC3)cc2n1-c1ccnc2c(F)cccc12 (atropisomer, axis not shown) [Example 341, 4-[3-(8-fluoroquinolin-4-yl)-2-methyl-7-(1,3-oxazol-2-yl)benzimidazol-5-yl]morpholine]
8.30 | Fc1ccc(F)c2c(-n3cnc4c(-c5ncco5)cc(N5CCOCC5)cc43)ccnc12 [Example 236, 4-[3-(5,8-difluoroquinolin-4-yl)-7-(1,3-oxazol-2-yl)benzimidazol-5-yl]morpholine]
8.30 | Cc1nc2c(-c3ncco3)cc(N3CCOCC3)cc2n1-c1ccnc2c(F)ccc(F)c12 [Example 229, 4-[3-(5,8-difluoroquinolin-4-yl)-2-methyl-7-(1,3-oxazol-2-yl)benzimidazol-5-yl]morpholine]

Reference: patent US10214519B2, “Phosphatidylinositol 3-kinase inhibitors” (Gilead Sciences, Inc., priority 2016, dated 2019)
